Each structure is given as a SMILES string. Active and inactive are the calls of the source. The rule behind the calls is not given here.

Data set [1] can be described thus: Anti-lymphangiogenic activity in HDLEC assessed as cell growth at 10 ug/ml incubated for 48 hrs by SRB staining based assay relative to control. Format: functional. The settings on record: Homo sapiens, read-out: Activity.
A short description of data set [2]: Anti-lymphangiogenic activity in HDLEC assessed as reduction in tube formation incubated for 8 hrs by matrigel tube formation based inverted phase contrast microscopic analysis. In kind it is functional, Homo sapiens.
Data set [3] can be described thus: Anti-lymphangiogenic activity in HDLEC assessed as cell growth at 50 ug/ml incubated for 48 hrs by SRB staining based assay relative to control. The settings on record: Homo sapiens, read-out: Activity. Format: functional. (The SRB assay estimates cell density from bound dye.)
For data set [4], the species on record is Homo sapiens. Description: Anti-lymphangiogenic activity in HDLEC assessed as reduction in tube formation at 50 ug/ml incubated for 8 hrs by matrigel tube formation based inverted phase contrast microscopic analysis. In kind it is functional.
A short description of data set [5]: Cytotoxicity against HDLEC at 50 ug/ml incubated for 24 hrs by LDH assay. To be noted: human.

With `CO[C@H]1C[C@@H]2CC[C@@H](C)[C@@](O)(O2)C(=O)C(=O)N2CCCC[C@H]2C(=O)O[C@H]([C@H](C)C[C@@H]2CC[C@@H](O)[C@H](OC)C2)CC(=O)[C@H](C)/C=C(\C)[C@@H](O)[C@@H](OC)C(=O)[C@H](C)C[C@H](C)/C=C/C=C/C=C/1C` [SIROLIMUS], in data set [1], the growth at 10 µg/mL stood at 17%. Further, the IC50 (commonly the concentration that inhibits the measured activity by half) in data set [2] stood at 57 µM.

On to `CC1=CC(=O)[C@@H]2[C@@H](C1)[C@]13CO[C@@]4([C@@H]1O)N1C[C@@H]5O[C@@]1(CC[C@@]4(C)[C@]1(COC(=O)C1)[C@H]3C(=O)[C@@H]2C)C[C@@H](C)[C@H]5O`, for which the growth at 50 µg/mL in data set [3] amounted to 98%.

For the molecule `C[C@H]1C[C@@H]2CN3C4=C[C@@]5(C)[C@@H]6CC(CO)=CC(=O)[C@H]6[C@@H](C)C(=O)[C@@H]5[C@@]5(COC(=O)C5)[C@]4(C)CC[C@@]3(C1)O2`, the half-inhibitory concentration (IC50) in data set [2] was 98 µM. For the same molecule, in data set [4], the inhibition result was “Active”. For the same molecule, in data set [3], the growth at 50 µg/mL was found to be 56%. Moreover, the Activity result in data set [5] was “Non-Toxic”.

With `COC(=O)CNCC1=CC(=O)[C@@H]2[C@@H](C1)[C@]13C=C4N5C[C@H]6C[C@H](C)C[C@]5(CC[C@@]4(C)[C@]4(COC(=O)C4)[C@H]1[C@@](O)(OC3)[C@@H]2C)O6`, the IC50 in data set [2] amounted to 68 µM. In addition, the inhibition result in data set [4] is “Active”. In addition, in data set [3], the growth at 50 µg/mL came to 38%. Further, the Activity entry in data set [5] is “Non-Toxic”.

Turning to `CC1=CC(=O)[C@@H]2[C@@H](C1)[C@]1(C)C=C3N4C[C@H]5C[C@H](C)C[C@]4(CC[C@@]3(C)[C@]3(COC(=O)C3)[C@H]1C(=O)[C@@H]2C)O5`, the growth at 50 µg/mL in data set [3] came to 91%.

Take `COC(=O)CNCC1=CC(=O)[C@@H]2[C@@H](C1)[C@]13CO[C@@]4([C@@H]1O)N1C[C@H]5C[C@H](C)C[C@]1(CC[C@@]4(C)[C@]1(COC(=O)C1)[C@H]3C(=O)[C@@H]2C)O5`: the growth at 50 µg/mL in data set [3] was determined as 76%.

In the case of `C[C@H]1C[C@@H]2CN3[C@](CC[C@@]4(C)[C@]5(COC(=O)C5)[C@H]5C(=O)[C@H](C)[C@@H]6C(=O)C=C(CO)C[C@H]6[C@@]56CO[C@@]34[C@@H]6O)(C1)O2`, the growth at 50 µg/mL in data set [3] worked out at 66%.

Turning to `C[C@H]1C[C@@H]2CN3C4=C[C@@]56CO[C@]7(C)CC(=O)[C@@H]([C@H]5C7)[C@@H](C)C(=O)[C@@H]6[C@@]5(COC(=O)C5)[C@]4(C)CC[C@@]3(C1)O2`, the growth at 50 µg/mL in data set [3] was 85%.

Regarding `CC1=CC(=O)[C@@H]2[C@@H](C1)[C@]1(C)C=C3N4C[C@@H]5O[C@@]4(CC[C@@]3(C)[C@]3(COC(=O)C3)[C@H]1C(=O)[C@@H]2C)C[C@@H](C)[C@H]5O`, the growth at 50 µg/mL in data set [3] came out at 85%.

On to `CC1=CC(=O)[C@@H]2[C@@H](C1)[C@]13C=C4N5C[C@H]6C[C@H](C)C[C@@]5(O6)[C@@H](O)C[C@@]4(C)[C@]4(COC(=O)C4)[C@H]1[C@@](O)(OC3)[C@@H]2C`, for which, in data set [3], the growth at 50 µg/mL was found to be 83%.

For the molecule `CC1=CC(=O)[C@@H]2[C@@H](C1)[C@]13CO[C@@]4([C@@H]1O)N1C[C@H]5C[C@H](C)C[C@]1(CC[C@@]4(C)[C@]1(COC(=O)C1)[C@H]3C(=O)[C@@H]2C)O5`, the growth at 50 µg/mL in data set [3] worked out at 81%.

Consider `C[C@H]1C[C@@H]2CN3[C@H]4C(=O)[C@@]56CO[C@]7(C)CC(=O)[C@@H]([C@H]5C7)[C@@H](C)C(=O)[C@@H]6[C@@]5(COC(=O)C5)[C@]4(C)CC[C@@]3(C1)O2`, for which the growth at 50 µg/mL in data set [3] is 86%.

With `C[C@H]1C[C@@H]2CN3C4=C[C@@]56CO[C@]7(C)CC(=O)[C@@H]([C@H]5C7)[C@@H](C)C(=O)[C@H]6[C@@]5(COC(=O)C5)[C@]4(C)CC[C@@]3(C1)O2`, the growth at 50 µg/mL in data set [3] is 82%.

As for `C[C@H]1C[C@@H]2CN3C4=C[C@@]56CO[C@@](O)([C@H](C)[C@@H]7C(=O)C=C(CO)C[C@H]75)[C@@H]6[C@@]5(COC(=O)C5)[C@]4(C)CC[C@@]3(C1)O2`, in data set [2], the 50% inhibitory concentration (IC50) stood at 99 µM. Also, in data set [4], the inhibition entry is “Active”. Also, the growth at 50 µg/mL in data set [3] was determined as 60%. The Activity result in data set [5] is “Non-Toxic”.

As to `CC1=CC(=O)[C@@H]2[C@@H]([C@@H]1O)[C@]1(C)C=C3N4C[C@H]5C[C@H](C)C[C@]4(CC[C@@]3(C)[C@]3(COC(=O)C3)[C@H]1C(=O)[C@@H]2C)O5`, the growth at 50 µg/mL in data set [3] was 75%.

Consider `CC1=CC(=O)[C@@H]2[C@@H](C1)[C@]13CO[C@@]4([C@@H]1O)N1C[C@H]5C[C@H](C)C[C@@]1(O5)[C@@H](O)C[C@@]4(C)[C@]1(COC(=O)C1)[C@H]3C(=O)[C@@H]2C`, for which the growth at 50 µg/mL in data set [3] is 100%.

As to `CC1=CC(=O)[C@@H]2[C@@H](C1)[C@]13C=C4N5C[C@@H]6O[C@@]5(CC[C@@]4(C)[C@]4(COC(=O)C4)[C@H]1[C@@](O)(OC3)[C@@H]2C)C[C@@H](C)[C@H]6O`, the growth at 50 µg/mL in data set [3] was determined as 101%.

Take `CC1=CC(=O)[C@@H]2[C@@H](C1)[C@]13C=C4N5C[C@H]6C[C@H](C)C[C@]5(CC[C@@]4(C)[C@]4(COC(=O)C4)[C@H]1[C@@](O)(OC3)[C@@H]2C)O6`: in data set [3], the growth at 50 µg/mL was determined as 88%.

Values taken from ChEMBL document CHEMBL4376824, “Anti-Lymphangiogenic Alkaloids from the Zoanthid Zoanthus vietnamensis Collected in Taiwan” (J Nat Prod, 2019).
